Results published in PubChem BioAssay AID1159536 (DiRusso Lab, Biochemistry Department, University of Nebraska, 2015).
Records with an inconclusive call do not appear. Activity calls are given as the source filed them. No rule for the calls is given here.

System: Chlamydomonas reinhardtii, Nile Red lipid fluorescence, 72 h
Assay: compounds raising TAG storage in Chlamydomonas – qHTS, Chlamydomonas reinhardtii, dose response (AID 1159536)

Row | Compound | EC50
1 | Cc1cc(C(C)(C)C)ccc1OCCN1CCN(C)CC1 | 4.43 µM
2 | CCC(C)c1ccccc1OCCOCCN1CCOCC1 (stereo not given) | 13.1 µM
3 | O=C1C2C3CCC(C3)C2C(=O)N1c1nccs1 (stereo not given) | 13.5 µM (inactive)
4 | N#Cc1c(-n2ncnc2-c2cccnc2)sc2c1CCCCC2 | 2.47 µM (inactive)
5 | Oc1ccc(Br)cc1CN1CCN(CC2CC3C=CC2C3)CC1 (stereo not given) | 9.95 µM
6 | COc1ccccc1NC(=O)N1CCN(c2ccccn2)CC1 | 4.11 µM
7 | CN1CCC(N(C)Cc2cccc(Oc3ccccc3)c2)CC1 | 10.1 µM
8 | Oc1ccccc1CNCCC12CC3CC(CC(C3)C1)C2 | 2.49 µM (inactive)
9 | OCCN1CCN(C2C3CC4CC(C3)CC2C4)CC1 (stereo not given) | 4.25 µM
10 | COc1cccc(N2CCN(C3CCCC(C)C3)CC2)c1 (stereo not given) | 6.34 µM
11 | Oc1ccc(CN2CCN(c3ccccc3Cl)CC2)cc1 | 0.632 µM
12 | Clc1ccc(Cl)c(OCCCCN2CCNCC2)c1 | 5.34 µM
13 | O=C(Nc1ccc([N+](=O)[O-])cc1)c1c(F)c(F)c(F)c(F)c1F | 1.36 µM (inactive)
14 | Clc1ccc(OCCOCCN2CCOCC2)c(Br)c1 | 7.9 µM
15 | CN1CCN(CC#CC=C(c2ccccc2)c2ccccc2)CC1 | 2.57 µM (inactive)
16 | Cc1ccc(S(=O)(=O)n2cccn2)cc1 | 12.9 µM (inactive)
17 | Cc1c(C(=O)Nc2ccc(F)c(F)c2)cccc1[N+](=O)[O-] | 17.5 µM (inactive)
18 | C=CCNCC(=O)NC12CC3CC(CC(C3)C1)C2 | 2.81 µM
19 | O=C(O)C1C2C=CC(O2)C1C(=O)Nc1ccccc1F (stereo not given) | 14.8 µM (inactive)
20 | Cc1ccc(OCCCN2CCOCC2)c(C)c1 | 10.3 µM
21 | c1ccc(CCN2CCN(c3ccccc3)CC2)cc1 | 0.157 µM
22 | O=[N+]([O-])c1ccc(CN2CCN(Cc3ccccc3)CC2)cc1 | 6.26 µM
23 | Cc1cc(OCCCCN2CCN(C)CC2)cc(C(C)C)c1 | 1.92 µM
24 | COc1cccc(NC2=C(N(C)C)C(=O)c3ccccc3C2=O)c1 | 1.87 µM (inactive)
25 | CCc1cccc(OCC(=O)Nc2cc(OC)c(OC)cc2C(=O)O)c1 | 1.38 µM

Row | Compound | EC50
26 | CN(c1ccc(C(=O)NC2CCCCCC2)cc1)S(=O)(=O)c1ccccc1 | 4.98 µM
27 | CC(C)=CCC[C@H](C)CCN1CCN(C)CC1 | 10 µM
28 | CC(CNC(=O)c1ccc(C(C)(C)C)cc1)CN(C)C (stereo not given) | 10.3 µM
29 | CCOc1ccc(C(=O)NCCNC(=O)c2ccc(OCC)cc2)cc1 | 19.9 µM (inactive)
30 | CCc1ccc(OCCOCCN2CCOCC2)cc1 | 10.1 µM
31 | CCN(CC(O)COc1ccc(Br)cc1)C1CCCCC1 (stereo not given) | 10.2 µM
32 | CCOc1ccc(CN2CCN(c3ccc([N+](=O)[O-])cc3)CC2)cc1 | 2.64 µM
33 | Cc1cc(I)ccc1S(=O)(=O)NCCCN1CCOCC1 | 1.28 µM
34 | Cc1cccc(N2CCN(Cc3ccc([N+](=O)[O-])cc3)CC2)c1C | 10.9 µM
35 | CC1(C)CC(NC(=O)Cc2ccccc2[N+](=O)[O-])CC(C)(C)N1 | 10.3 µM (inactive)
36 | COc1cccc(N2CCN(Cc3ccc([N+](=O)[O-])cc3)CC2)c1 | 0.667 µM
37 | CN1CCN(Cc2cccc(Oc3ccccc3)c2)CC1 | 9.98 µM
38 | O=[N+]([O-])c1ccccc1S(=O)(=O)N1CCN(C2CCN(Cc3ccccc3)CC2)CC1 | 10.7 µM
39 | c1ccc(N2CCN(Cc3ccsc3)CC2)cc1 | 0.652 µM
40 | Cc1ccc(C(C)C)cc1OCCCCN1CCOCC1 | 4.01 µM
41 | C=CCn1c(SCC(=O)O)nnc1-c1ccc([N+](=O)[O-])cc1 | 13.6 µM (inactive)
42 | C(=C\c1ccccc1)/CN1CCN(CC2CCCCC2)CC1 | 0.644 µM
43 | COc1cc(C)c(CN2CCCN(C)CC2)cc1C | 10.3 µM
44 | CC(=O)NC1=C(N2CCN(Cc3ccccc3)CC2)C(=O)c2ccccc2C1=O | 14.3 µM (inactive)
45 | O=[N+]([O-])c1ccc(OCCCCN2CCOCC2)cc1 | 14.2 µM
46 | Oc1ccc(Br)cc1CN1CCC(N2CCOCC2)CC1 | 22.8 µM
47 | Cc1ccc(C)c(N2CCN(CC3CC4C=CC3C4)CC2)c1 (stereo not given) | 30.4 µM
48 | Fc1ccc(CN2CCN(c3ccccc3Cl)CC2)cc1 | 1.4 µM
49 | Cc1cc(OCC(O)CN2CCN(CCO)CC2)ccc1C(C)C (stereo not given) | 0.81 µM
50 | Cc1ccc(OCC(O)CN(C)C2CCCCC2)cc1C (stereo not given) | 4.42 µM

Row | Compound | EC50
51 | Cc1ccsc1/C=C(\C#N)c1nc(-c2ccc([N+](=O)[O-])cc2)cs1 | 14.9 µM (inactive)
52 | Cc1ccc(CN2CCN(CCO)CC2)cc1 | 16.1 µM
53 | Cc1ccc(CN2CCC(C(=O)N3CCN(c4ccccc4F)CC3)CC2)o1 | 7.9 µM (inactive)
54 | Cc1c(NC(=O)c2c(F)c(F)c(F)c(F)c2F)c(=O)n(-c2ccccc2)n1C | 19 µM (inactive)
55 | CN1CCN(Cc2ccc(-c3ccccc3Cl)o2)CC1 | 3.34 µM
56 | CC(C)(C)C1CCC(NCc2ccncc2)CC1 (stereo not given) | 3.53 µM
57 | Clc1cc(Br)ccc1OCCCN1CCOCC1 | 4.43 µM
58 | C=C(C)CN(CC)C(=O)C1CCN(CC2CC=CCC2)CC1 (stereo not given) | 2.73 µM
59 | O=C(Nc1ccc(S(=O)(=O)N2CCCC2)cc1)c1ccc(Cl)cc1Cl | 2.32 µM (inactive)
60 | Cc1ccc(C)c(N2CCN(C3CCc4ccccc4C3)CC2)c1 (stereo not given) | 16.7 µM
61 | O=C(Nc1ccc([N+](=O)[O-])cc1)c1ccccc1Cl | 5.11 µM
62 | C/C(=C\c1ccccc1)CN(C)CCN(C)C | 2.65 µM
63 | Cc1ccc(OCCCCN2CCCC2)c(Br)c1 | 2.65 µM
64 | CC1CCN(S(=O)(=O)c2ccc(NC(=O)c3cccc([N+](=O)[O-])c3)cc2)CC1 | 2.7 µM
65 | O=[N+]([O-])c1ccc(CN2CCN(Cc3ccccc3F)CC2)cc1 | 8.4 µM
66 | CCc1ccc(CN2CCN(c3ccccc3C)CC2)cc1 | 1.33 µM (inactive)
67 | Fc1ccc(CN2CCN(c3cccc(Cl)c3)CC2)cc1 | 1.29 µM
68 | Cc1ccc(C(=O)Nc2ccc(Cl)cc2C)cc1C | 16.6 µM (inactive)
69 | CN(Cc1ccc([N+](=O)[O-])cc1)C1CCCCC1 | 0.0878 µM
70 | O=[N+]([O-])c1ccc(CN2CCN(C3CCCC3)CC2)cc1 | 0.0669 µM
71 | O=C(CN1CCCCC1)Nc1ncc(Cc2ccc(F)cc2)s1 | 0.0585 µM (inactive)
72 | CC(C)(C)c1csc(NC(=O)c2ccc(N3CCOCC3)c([N+](=O)[O-])c2)n1 | 2.66 µM
73 | COc1ccccc1N1CCN(Cc2ccc(Cl)cc2)CC1 | 1.61 µM
74 | O=C1CC(N2CCc3ccccc3C2)C(=O)N1c1ccc([N+](=O)[O-])cc1 (stereo not given) | 15.7 µM (inactive)
75 | COc1ccc(CCN(C)Cc2ccc([N+](=O)[O-])cc2)cc1OC | 10 µM

Row | Compound | EC50
76 | Cc1cccc(-c2noc(COc3ccc(Br)cc3)n2)c1 | 9.11 µM (inactive)
77 | CCN(CC)c1cc(C)nc(N)n1 | 2.53 µM (inactive)
78 | C/C=C(\C)CN1CCN(C/C=C/c2ccccc2)CC1 | 1.28 µM
79 | O=C1CC(N2CCN(Cc3ccc4c(c3)OCO4)CC2)C(=O)N1CCc1ccccc1 (stereo not given) | 2.63 µM
80 | O=C(NCCc1ccc(Cl)cc1)C(=O)Nc1nccs1 | 10.2 µM (inactive)
81 | CN(CC(O)COc1ccc(F)cc1)C1CCCCC1 (stereo not given) | 11.2 µM
82 | COc1cc2c(cc1OC)CN(Cc1ccc(F)cc1)CC2 | 9.96 µM
83 | Cc1cc(Cl)cc(C)c1OCCn1ccnc1 | 1.29 µM
84 | Cc1ccc(OCCCn2ccnc2)c(Br)c1 | 1.26 µM
85 | Oc1ccc(Cl)cc1CN1CCN(Cc2ccccc2)CC1 | 3.56 µM
86 | Clc1ccccc1-c1nnc(-c2ccccc2)o1 | 2.7 µM
87 | CC(=O)c1nc2cc([N+](=O)[O-])ccc2n1Cc1ccccc1 | 10 µM (inactive)
88 | COc1cccc(N2CCN(CC3CC4C=CC3C4)CC2)c1 (stereo not given) | 1.26 µM
89 | CN1CCN(Cc2ccc3c(c2)Cc2ccccc2-3)CC1 | 9.99 µM
90 | CN1CCCN(Cc2cccc(Oc3ccccc3)c2)CC1 | 10.1 µM
91 | O=C(CN1CCCCC1)NC12CC3CC(CC(C3)C1)C2 | 3.47 µM
92 | Cc1cc(Cl)c(OCCOCCN2CCN(C)CC2)c(Br)c1 | 3.1 µM
93 | CC1(C)Oc2ccc(NC(=O)c3ccc(C(=O)c4ccccc4)cc3)cc2O1 | 8.94 µM (inactive)
94 | Cc1ccccc1N1CCN(Cc2ccc(O)cc2)CC1 | 10 µM
95 | OC(COc1ccc(Cl)cc1Cl)CN1CCN(Cc2ccccc2)CC1 (stereo not given) | 7.67 µM
96 | CCCCNc1cc(C)nc(N2CCOCC2)n1 | 13.1 µM
97 | CN(C)c1ccc(NC(=O)Nc2ccc3nc(-c4ccccn4)c(-c4ccccn4)nc3c2)cc1 | 1.33 µM
98 | CN1CCN(C2C3CC4CC(C3)CC2C4)CC1 (stereo not given) | 9.7 µM
99 | CCC(CC)C(=O)Nc1ccc(C(=O)Nc2nccs2)cc1 | 1.83 µM (inactive)
100 | COc1ccccc1N1CCN(C2CCN(Cc3cccc(C)c3)CC2)CC1 | 10.4 µM

Row | Compound | EC50
101 | CN1CCN(CCCOc2ccc(Br)cc2)CC1 | 9.74 µM
102 | CC(C)NCC(=O)NC12CC3CC(CC(C3)C1)C2 | 0.638 µM
103 | C(#CCN1CCCCC1)COc1ccccc1 | 4.84 µM
104 | CC1CCC(N2CCN(Cc3ccccc3)CC2)CC1 (stereo not given) | 5.57 µM
105 | Cc1ccc(NC(=O)CSc2nnc(-c3ccc(Cl)cc3Cl)n2N)c(C)c1 | 2.46 µM (inactive)
106 | COc1ccc(OCCCN2CCCC(C)C2)cc1 (stereo not given) | 12.5 µM
107 | Cc1ccc(NC(=O)CC(C)C)c(NC(=O)CC(C)C)c1 | 7.89 µM (inactive)
108 | O=C1CC(N2CCC(C(O)(c3ccccc3)c3ccccc3)CC2)C(=O)N1c1ccc(F)cc1 (stereo not given) | 13.6 µM (inactive)
109 | Brc1ccc2ncnc(N3CCN(Cc4ccccc4)CC3)c2c1 | 2.02 µM
110 | c1ccc(N2CCN(CC3CCCCC3)CC2)cc1 | 1.03 µM
111 | Cc1ccc(OCCCCN2CCOCC2)cc1 | 4.2 µM
112 | O=C(C1COc2ccccc2O1)N1CCN(Cc2ccccc2)CC1 (stereo not given) | 10.6 µM
113 | Clc1ccc(OCCCCN2CCCC2)c(Br)c1 | 2.55 µM
114 | O=C(Nc1ccc(Br)cc1)c1ccccc1Cl | 9.96 µM
115 | COc1ccc(CN2CCN(C/C=C/c3ccccc3)CC2)cc1 | 6.56 µM
116 | Cc1ccc(N2CCN(C3CCCCCC3)CC2)cc1 | 0.649 µM
117 | CC1CN(CC(O)COc2ccc(C(C)(C)C)cc2)CC(C)O1 (stereo not given) | 9.95 µM
118 | CCC(C)c1ccc(OCCN2CCCC2)cc1 (stereo not given) | 5.17 µM
119 | Cc1ccc(C(=O)Nc2ccc3oc(-c4ccncc4)nc3c2)cc1C | 1.6 µM
120 | COc1ccc(NC(=O)CCC2CCCCC2)c([N+](=O)[O-])c1 | 6.82 µM
121 | O=C(CN1CCCCC1)NCC12CC3CC(CC(C3)C1)C2 | 9.27 µM
122 | C(=C\c1ccccc1)/CN1CCN(C2C3CC4CC(C3)CC2C4)CC1 (stereo not given) | 3.99 µM
123 | COc1ccc(OC)c(CNCCc2ccc([N+](=O)[O-])cc2)c1 | 0.646 µM
124 | CN1CCCN(Cc2ccc([N+](=O)[O-])o2)CC1 | 15 µM (inactive)
125 | COc1ccc(C(=O)NCCN2CCOCC2)cc1[N+](=O)[O-] | 5.99 µM (inactive)
